Results published in patent publication US20180185391A1, “Drug Treatment Of Psoriasis And Of Other Skin Disorders Associated With Inhibition Of Differentiation Of Epidermal Cells” (priority 2016, published 2018).
“Also recorded” adds a separate entry of the source.

Tests used:
psoriatic lesions = assay: Clinical observation of psoriatic plaques under topical treatment; format: in vivo, human
Procedure: The base cream used is made predominantly of heavy paraffin oil (10% w/w), vaseline (10% w/w), stearyl alcohol (8% w/w), polyoxylsteareth-40 (3% w/w) and water (68% w/w) but another suitably formulated base cream is also possible. […] The dosing and the application schedules followed for the lesion shown in FIG. 1A (psoriatic plaque on the dorsum of hand) are as follows: about 30 μl cream applied directly onto the lesion with the aid of a steel spatula every four hours for 24 hours. The cream-applied area is protected from accidental smearing and loss of the cream by covering with an aluminum applicator (FIG. 1 B). The dosing and the application schedules followed for the lesion shown in FIG. 1 D (psoriatic plaque at the scapular region) are as follows: about 30 μl cream applied directly onto the lesion every four hours for 24 hours. The cream-applied area is similarly covered against the smearing and loss of cream. Other treated psoriatic patients and lesions received from about 30 to 35 μl cream to each lesion at intervals of every 3 to 5 hours, as suitable and convenient. Lesions were similarly covered against the smearing and loss of cream. […] The corticosteroid used for treatment of the lesion shown in FIG. 4E was clobetasol 17-propionate in a final concentration of about 1.1 mM in base cream.

[1] = test system: palmoplantar pustulosis lesions; conditions: 0.55 mM alone for 4 days; cited from earlier work
psoriatic lesional skin = assay: Histopathological examination (H&E) of treated psoriatic lesional skin sections; format: in vivo, human; conditions: 24th hour of treatment
Procedure: FIG. 1A and FIG. 1C show a psoriatic plaque before and after exposure to cyclopamine and the rapid clinical regression. The cyclopamine cream was applied to the proximal half of this lesion present on the dorsum of right hand of a patient having plaque-type psoriasis. At intervals of 4 hours, approximately 30 μl cream was applied directly onto the lesion and the cream-applied region was covered against accidental smearing and loss of the cream (FIG. 1 B).
FIG. 2A to FIG. 2W show histopathological and immunohistochemical examination findings of the tissue sections from the non-lesional skin, cyclopamine-treated lesional skin and non-treated lesional skin. Compared to the non-lesional skin (FIG. 2A), the non-treated lesional skin (FIG. 2B) is seen to display the typical histopathological signs of a psoriatic skin lesion mentioned above in the “Background of Invention”. […] These histopathological signs of regression to normalcy, exemplified in the figures FIG. 2C and FIG. 2D (examples from other cyclopamine-treated lesions and patients are given later) include the following: […]

human epithelial antigen = assay: Immunohistochemical staining for epithelial antigen with Ber-EP4 antibody; format: in vivo
Text: All reaction conditions were as recommended by the manufacturer.
The monoclonal antibody Ber-EP4 is known to label the basal layer cells in normal epidermis. The outer root sheath of hair follicles, where the hair stem cells are thought to reside, are also known to be labeled with Ber-EP4.

cytokeratin 15 = assay: Immunohistochemical staining with C8/144B antibody (cytokeratin 15)
Text: All antibodies and reagents for these immunohistochemical investigations were purchased from DAKO (Glostrup, Denmark); human Ki-67 antigen was detected by the monoclonal antibody M7187, human epithelial antigen was detected by the monoclonal antibody Ber-EP4, human CD4 antigen was detected by the monoclonal antibody M0716, human CD8 antigen was detected by the monoclonal antibody C8/144B. Besides the CD8 antigen, the monoclonal antibody C8/144B is known to recognize and bind to the cytokeratin 15 expressed by the hair stem cells (Kanitakis J. et al. (1999) Eur. J. Dermatol. 9:363-365). A DAKO “universal visualization kit” (LSAB2) employing biotinylated secondary antibody and peroxidase-conjugated streptavidin (pre-diluted to match the dilutions of DAKO-supplied primary antibodies) was used for the visualization reactions. All reaction conditions were as recommended by the manufacturer.

healthy skin = assay: Follow-up of healthy and non-lesional skin for adverse effects of topical cyclopamine; conditions: for adverse effect on healthy / non-lesional skin: topical application under the described concentration and dosing conditions
Text: Genetic heterogeneity and different ages of the psoriatic patients as well as the localizational heterogeneity of psoriatic lesions throughout body invite evaluation of the use of cyclopamine on different patients and lesions.
As there is evidence for the involvement of the hedgehog/smoothened signal transduction pathway in the maintenance of epidermal stem cells, untoward side effects of cyclopamine on skin are, a priori, possible and must be excluded.

[2] = psoriatic lesional skin, 24th hour of treatment

Structure (SMILES) | regression or clearance of psoriatic lesions (psoriatic lesions; about […], alone, four days of treatment) | effect on palmoplantar pustulosis lesions [1] | erythema of the psoriatic plaque (psoriatic lesions; 12th hour of treatment, scapular plaque, cyclopamine applied for a day then discontinued) | effectiveness on psoriatic lesions (regression and clearance) (psoriatic lesions; every lesion treated, unrelated patients 29 to 57 years, extremities to trunk) | state of the psoriatic plaque (psoriatic lesions; fourth day of follow-up, scapular plaque, 1 day of treatment, still visible) | lesions subjected to the single-day treatment that failed to clear completely (psoriatic lesions; human, in vivo) | day on which the lesion cleared (psoriatic lesions; scapular plaque, cyclopamine applied for a day then discontinued) [days] | granular layer of epidermis (psoriatic lesional skin) | histopathological signs of the psoriatic lesion (psoriatic lesional skin) | Ber-EP4 labeling of basal cells of non-lesional skin (human epithelial antigen; non-lesional skin after exposure to cyclopamine) | Ber-EP4 labeling of epidermal basal layer cells (human epithelial antigen; [2]) | cytokeratin 15 in basal cells of non-lesional epidermis (cytokeratin 15; non-lesional epidermis exposed to cyclopamine) | C8/144B (cytokeratin 15) labeling of epidermal basal layer cells (cytokeratin 15; [2]) | appearance of skin sites of cyclopamine application (healthy skin; follow-up over a period of more than 31 months) | adverse effect on healthy / non-lesional skin (healthy skin) | adverse effect on healthy / non-lesional skin (healthy skin; listed as Cyclopamine)
CCC(=O)O[C@]1(C(=O)CCl)[C@@H](C)C[C@H]2[C@@H]3CCC4=CC(=O)C=C[C@]4(C)[C@@]3(F)[C@@H](O)C[C@@]21C [clobetasol 17-propionate, reference compound] | unable to cause a significant regression or clearance | not to produce a perceptible effect |  |  |  |  |  |  |  |  |  |  |  |  |  | 
CC1=C2C[C@H]3[C@@H](CC=C4C[C@@H](O)CC[C@@]43C)[C@@H]2CC[C@]12O[C@@H]1C[C@H](C)CN[C@H]1[C@H]2C [cyclopamine] |  |  | decreased erythema | highly effective | marked regression | about 29% | > 8 | Re-appearance of the granular layer | dramatic improvement and regression to normalcy; also recorded: regression of the psoriatic plaque | remained Ber-EP4 positive | reverted to normalcy; also recorded: reversion to normalcy; also recorded: Epidermal basal layer cells are seen to display the epithelial antigen | continued to be positive for the cytokeratin 15 | normalized and became labeled by the C8/144B antibody; also recorded: reversion to normalcy | healthy-looking normal skin and hair | no adverse effect has been detected | did not adversely affect the non-lesional skin; also recorded: no detectable adverse effect
